# Data as given in PubChem BioAssay AID2305 (GlaxoSmithKline (GSK), 2010).
# Values joined by “and” are separate entries in the source; they are usually repeats but may differ in a detail not shown here. Equal values may be shown once.
# Test system: P. falciparum 3D7 growth, pLDH absorbance
# Assay: blood-stage malaria parasite growth potency – strain 3D7, dose response (AID 2305)
row,Compound,IC50
1,CCNc1cc(C(=O)N[C@@H](Cc2ccccc2)[C@H](O)CNC23CCC(CC2)CC3)cc(N2CCCCS2(=O)=O)c1,60 nM
2,CCNc1cc(C(=O)N[C@@H](Cc2ccccc2)[C@H](O)CNC2C3CC4CC(C3)CC2C4)cc(N2CCCCS2(=O)=O)c1 (stereo not given in full),670 nM
3,CCOc1cc(C(=O)Nc2cccnc2)ccc1-c1nc2cc(Cl)c(Cl)cc2[nH]1,1010 nM
4,COc1ccc(NC(=O)NC2CCN(CCCOc3ccnc4cc(Cl)ccc34)C2)cc1OC (stereo not given),790 nM
5,N#Cc1ccc2c(c1)CCN(CCC1CCC(NC(=O)/C=C/c3ccc(Cl)c(Cl)c3)CC1)CC2 (stereo not given),420 nM
6,COc1c(C2=CCN(CCCCNC(=O)c3ccc(-c4ccc(C#N)cc4)cc3)CC2)c(C)cc2c1C(C)(C)CCC2(C)C,950 nM
7,O=C(Nc1ccc2c(c1)CCC2)c1cnc(N2CCN(c3ccncc3)CC2)c(Cl)c1,1110 nM
8,CC(C)NC(=O)c1cccc(-c2ccc(OCCN3CCCC3c3cc4ccccc4[nH]3)cc2)c1 (stereo not given),960 nM
9,CN1C(C)(C)CC(NC(=O)c2ccc(-c3nc4cc(Cl)c(Cl)cc4[nH]3)cc2)CC1(C)C,730 nM
10,O=C(N[C@H](Cc1ccc(Cl)cc1)C(=O)N1CCN(c2ccnc3cc(Cl)ccc23)CC1)[C@H]1Cc2ccccc2CN1,420 nM
11,Fc1ccc(OC2CN(c3nccc(NCc4ccccc4Cl)n3)C2)cc1,900 nM
12,O=C(Nc1ccc(C(=O)N2CCN(CCN3CCN(c4cccc(C(F)(F)F)c4)CC3)CC2)cc1)c1ccc(C(F)(F)F)cc1,690 nM
13,O=C1CN(C(=O)CCC2CCCC2)C(c2ccc(F)cc2)c2cc(F)ccc2N1 (stereo not given),170 nM
14,O=C(/C=C/c1ccc(Cl)c(Cl)c1)NCCCCCN1CCCN(C(=O)Nc2cc(Cl)nc(Cl)c2)CC1,790 nM
15,Cc1cccc2[nH]c(-c3ccc(-c4cccc(NC(=O)NCc5cccc(F)c5)c4)s3)nc12,760 nM
16,CC[C@H]1CN2CC[C@@H]1C[C@H]2[C@H](O)c1cc(N2CCC(O)(c3ccc(Cl)cc3)CC2)nc2ccc(OC)cc12,70 nM
17,Nc1ncc(-c2cn[nH]c2)cc1-c1nc2ncc(Cl)cc2[nH]1,910 nM
18,COc1cc2ccccc2cc1CNCCCCCCNCc1cc2ccccc2cc1OC,720 nM
19,COc1ccccc1-c1cccc(CNC2CCN(CC3Cn4c(=O)ccc5ccc(F)c3c54)CC2)c1 (stereo not given),1380 nM
20,CC[C@H](C)CNC(=O)c1cccc(-c2cccc(CN3CCC(N4CCCC4)CC3)c2)n1,710 nM
21,CCCOc1ccc(CNCCCCCCNCc2ccc(OCCC)c3ccccc23)c2ccccc12,410 nM
22,CCNC(=O)Nc1ccc(-c2ccc(-c3nc4c(C)cccc4[nH]3)s2)cc1,1070 nM
23,Cc1ccc(NC(=O)c2ccc(CN3CCCN(Cc4cccc(Cl)c4)CC3)cc2)cc1C,1210 nM
24,COc1cc(C(C)C)nc2ccc(NC(=O)c3ccc(C(=O)Nc4ccc5nc(C(C)C)cc(OC)c5c4)cc3)cc12,580 nM

row,Compound,IC50
1,NS(=O)(=O)Cc1cccc(-c2ccnc3ccc(-c4cccc(S(N)(=O)=O)c4)cc23)c1,1560 nM
2,COc1cc(OC)c(NC(=O)Nc2ccnc3ccccc23)cc1Cl,750 nM
3,Cn1nc(C(F)(F)F)cc1-c1ccc(C(=O)NC2CCC(CN3CCC(c4c[nH]c5ccccc45)CC3)CC2)s1 (stereo not given),560 nM
4,Cc1ccc(CNC(=O)[C@H](CCCN)Nc2nc(NCC3CCCCC3)ncc2C)cc1,990 nM
5,CCc1cccc(NC(=O)/C=C/c2ccc3c(c2)CN(C)CC3)c1,770 nM
6,Nc1nc(N)c2c(ccc3nccc32)[nH]1,1080 nM
7,COc1ccccc1N=C1SC(=Cc2cn(CC(=O)N3CCCc4ccccc43)c3ccccc23)C(=O)N1C1CCCCC1,30 nM
8,CCN(CC)Cc1ccc2c(=O)cc(CCc3cccc(F)c3F)n(CC(=O)N(Cc3ccc(-c4ccc(C(F)(F)F)cc4)cc3)C(C)C)c2c1,780 nM
9,Cc1cccc2[nH]c(-c3ccc(-c4ccc(CN5CCOCC5)cc4)cc3)nc12,820 nM
10,Cc1ccc(O)c(C(=O)c2cc(C(=O)Nc3ccccc3C)c(=O)n(-c3ccccc3C)c2)c1,780 nM
11,O=S(=O)(c1cccc(Cl)c1F)N(CCC(O)(C(F)(F)F)C(F)(F)F)Cc1cccc(O)c1,920 nM
12,NC1=NC(Cc2ccccc2)N(c2ccc(Cl)cc2)C(N)=N1 (stereo not given),140 nM
13,CC(C)COc1ccc(C(O)C(CN2CCCCC2)c2ccccc2)cc1 (stereo not given),920 nM
14,Nc1nc2cccc3ccc4cccc1c4c32,920 nM
15,CC(C)N1CCCN(C(=O)C2CCN(c3ccc(C(=O)N4CCCC4)cn3)CC2)CC1,1060 nM
16,Cc1[nH]c2c(C)cccc2c1C1CCN(CCC2CCN(C(=O)/C=C/c3ccc(Cl)c(Cl)c3)CC2)CC1,640 nM
17,COc1cccc(CNc2ncc(-c3ccsc3)c(-c3nccs3)n2)c1,420 nM
18,Oc1c(CN2CCC(Cc3ccccc3)CC2)cc(Cl)c2cccnc12,880 nM
19,O=C(NC1CCCCN(Cc2ccccc2O)C1)c1cccc(Cl)c1 (stereo not given),1060 nM
20,O=C(Nc1ccccc1Cc1ccccc1)c1ccccc1[N+](=O)[O-],860 nM
21,O=C(Nc1ccon1)c1cc(-c2cccnc2)nc2ccc(Cl)cc12,790 nM
22,NC1CCN(CCc2ccc(NS(=O)(=O)c3ccc(-c4ccccc4)cc3)cc2)CC1,1020 nM
23,NC(N)=NN=CC(=O)Nc1ccc(C(F)(F)F)cc1,930 nM
24,Cc1ccc(NC(=O)c2cnc(N3CCN(c4ccncc4)CC3)c(Cl)c2)cc1,960 nM

row,Compound,IC50
1,COc1cc2nc(N3CCC(CNC(=O)c4cc5ccccc5s4)CC3)nc(N)c2cc1OC,290 nM
2,COc1cc(NC2=C(c3ccccc3)C(=O)c3ccccc32)ccn1,360 nM
3,O=C(/C=C/c1ccc(Cl)c(Cl)c1)NCCCCCN1CCCC(CNC(=O)Nc2ccc(Oc3ccccc3)cc2)C1 (stereo not given),780 nM
4,COc1ccc(C#Cc2ccc(-c3c(C)[nH]c(C)c(Cl)c3=O)cc2)cc1,70 nM
5,C=C[C@H]1CN2CC[C@H]1C[C@H]2[C@H](O)c1ccnc2ccc(OC)cc12,100 nM and 430 nM and 150 nM
6,FC(F)(F)c1ccc2nc(-c3ccc(-c4cccc(CNCc5ccccc5)c4)s3)[nH]c2c1,150 nM
7,Cc1cc(N[C@@H](Cc2ccccc2)C(=O)NC2CCCC2)nc(NCCOc2ccccc2)n1,1110 nM
8,COc1ccc2nccc([C@@H](O)CN3CCC(NC(=O)/C=C/c4cccc(C)c4)CC3)c2c1,1250 nM
9,CNc1nc(NN=Cc2cc([N+](=O)[O-])c(Cl)cc2Cl)nc(Nc2cccc(C(F)(F)F)c2)n1,730 nM
10,CCc1nnc2sc(-c3cccc(NC(=O)c4ccc(C)c([N+](=O)[O-])c4)c3)nn12,1410 nM
11,COc1ccc2nccc(NN=Cc3ccncc3)c2c1,580 nM
12,Cc1cccc2[nH]c(-c3ccc(-c4cccc(CNC(C)C)c4)s3)nc12,230 nM
13,Cc1[nH]c2ccccc2c1C(=O)C(C)Sc1nnc(-c2ccccc2F)o1 (stereo not given),690 nM
14,C/C=C1\CN2CC[C@H]1C[C@H]2[C@H](O)c1ccnc2ccc(O)cc12,600 nM
15,Cc1c(C(=O)N2CCc3cc4nccc(N5CCN6CCC[C@H]6C5)c4cc32)cnn1-c1ccc(C#N)cc1,990 nM
16,CC[C@H]1CN2CCc3cc(OC)c(OC)cc3[C@@H]2C[C@@H]1C[C@H]1NCCc2c1cc(OC)c(O)c2I,220 nM
17,COc1ccc2nccc(NCC3(O)CCN(CCc4ccc5c(c4)OCCO5)CC3)c2n1,600 nM
18,CN(C)c1cccc2c1nc(-c1ccco1)n2CC1CCCN1 (stereo not given),970 nM
19,CCOc1ccc(-c2nonc2NC(=O)c2ccc(OC(C)C)cc2)cc1OCC,600 nM
20,CC1(C)N=C(N)N=C(N)C1c1ccc(Cl)cc1 (stereo not given),260 nM
21,N#Cc1ccc(-c2nc3c(N4CCCC4)cccc3n2CCNCc2ccccc2)cc1,590 nM
22,FC(F)(F)c1ccc2nc(-c3ccc(-c4cccc(CNCCN5CCNCC5)c4)s3)[nH]c2c1,1040 nM
